Each compound was assayed on PANMI (wild proso millet) (assay: Pre-emergence herbicidal activity, warm season). Settings: GR80 = lowest tested rate (300, 100, 30, 10 g/ha) with 80% or greater inhibition; approx. 14 days after treating; 30/21° C.
Type: in vivo, Panicum miliaceum
Method in brief: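 Activity is expressed as the rate giving 80% inhibition, with 300, 100, 30 and 10 g/ha typically tested. An asterisk marks activity short of 80% at the top rate. Warm-season grasses were held at 30/21 °C; cool-season blackgrass and wild buckwheat at 18/13 °C; scoring at about 14 days.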
For CCN(CC)C(=O)n1cnc(S(=O)(=O)C(F)(F)SCCOC)n1 [Example 13], the “Pre-emergence activity (GR80) PANMI” value was 300 g/ha.

These compounds were tested on BRAPP (broadleaf signalgrass) (assay: Pre-emergence herbicidal activity, warm season). Settings: GR80 = lowest tested rate (300, 100, 30, 10 g/ha) with 80% or greater inhibition; approx. 14 days after treating; 30/21° C.
Type: in vivo, Brachiaria platyphylla
Method in brief: (§1)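 GR80 values derive from percent inhibition relative to untreated plants, read roughly 14 days after sowing and pre-emergence soil-surface treatment (compound in 50:50 acetone/water; rates typically 10, 30, 100, 300 g/ha). Warm-season weeds grew at 30/21° C day/night, cool-season ones at 18/13° C; an asterisk marks activity without reaching 80% at the highest rate.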
For CCN(CC)C(=O)n1cnc(S(=O)(=O)C(F)(F)SCCOC)n1 [Example 13], the “Pre-emergence activity (GR80) BRAPP” value was 300 g/ha.

These compounds were tested on SETVI (green foxtail) (assay: Pre-emergence herbicidal activity, cool season). Settings: GR80 = lowest tested rate (300, 100, 30, 10 g/ha) with 80% or greater inhibition; approx. 14 days after treating; 18/13° C.
Type: in vivo, Setaria viridis
Method in brief: as §1
In the case of CCN(CC)C(=O)n1cnc(S(=O)(=O)C(F)(F)SCCOC)n1 [Example 13], the “Pre-emergence activity (GR80) SETVI” value is reported as 100 g/ha.

The compounds below were run on AGSST (creeping bentgrass) (assay: Pre-emergence herbicidal activity, cool season). Settings: GR80 = lowest tested rate (300, 100, 30, 10 g/ha) with 80% or greater inhibition; approx. 14 days after treating; 18/13° C.
Type: in vivo, Agrostis stolonifera
Method in brief: as §1
CCN(CC)C(=O)n1cnc(S(=O)(=O)C(F)(F)SCCOC)n1 [Example 13] was tested, and the “Pre-emergence activity (GR80) AGSST” value was 100 g/ha.

The compounds below were run on DIGSA (large crabgrass) (assay: Pre-plant incorporated (PPI) herbicidal activity, warm season). Settings: PPI application, 10 g/ha.
Type: in vivo, Digitaria sanguinalis
Method: (§2) In another set of tests, the pre-plant incorporated (PPI) activity of compounds of this invention was evaluated on the same species as for the pre-emergence tests described above. In the PPI tests the following procedure, designed to simulate PPI application, was used.
(§3) A pre-prepared topsoil mixture (described above) was placed in a pot and compacted to a depth of 1.0 to 1.25 cm from the top of the pot. Seeds of each of several monocotyledonous and dicotyledonous annual plant species were placed on top of the soil. A sufficient quantity of soil to cover the seeds and level fill the pot was weighed into an open container. A known amount of the test compound was dissolved or suspended in an organic solvent and applied by spraying to this cover soil. The cover soil was thoroughly mixed to distribute the test compound throughout the cover soil, and was then applied as a cover layer over the seeds. Untreated soil was used as a cover layer for control pots. After treatment the plants were placed in a greenhouse where they received 0.64 cm of overhead irrigation. All subsequent watering consisted of a light overhead mist and/or subirrigation as needed for germination and growth. Tables 9 and 10 below relate to warm season plant species which were placed after pre-emergence treatment in a greenhouse with a 30/21° C. day/night temperature regime. Tables 11 and 12 below relates to cool season plant species placed after pre-emergence treatment in a greenhouse or growth chamber with an 18/13° C. day/night temperature regime. Only the compounds of Examples 1, 6, 8, 11, 13 and 15-20 were included in PPI tests.
(§4) Approximately 14 days after planting and treating, the plants were observed and herbicidal efficacy recorded as percent inhibition by comparison with untreated plants.
In the case of CCN(CC)C(=O)n1cnc(S(=O)(=O)C(F)(F)SCCOC)n1 [Example 13], the “Percent inhibition DIGSA” value is reported as 0%.

Same assay, conditions: PPI application, 30 g/ha
In the case of CCN(CC)C(=O)n1cnc(S(=O)(=O)C(F)(F)SCCOC)n1 [Example 13], the “Percent inhibition DIGSA” value is reported as 75%.

Same assay, conditions: PPI application, 100 g/ha
With CCN(CC)C(=O)n1cnc(S(=O)(=O)C(F)(F)SCCOC)n1 [Example 13] the “Percent inhibition DIGSA” value was 100%.

Same assay, conditions: PPI application, 300 g/ha
In the case of CCN(CC)C(=O)n1cnc(S(=O)(=O)C(F)(F)SCCOC)n1 [Example 13], the “Percent inhibition DIGSA” value is reported as 100%.

Same assay, conditions: PPI application, 900 g/ha
CCN(CC)C(=O)n1cnc(S(=O)(=O)C(F)(F)SCCOC)n1 [Example 13] was tested, and the “Percent inhibition DIGSA” value was 100%.

Same assay, conditions: pre-plant incorporated; lowest tested rate with 80% or greater inhibition; about 14 days
In the case of CCN(CC)C(=O)n1cnc(S(=O)(=O)C(F)(F)SCCOC)n1 [Example 13], the “PPI activity GR80, DIGSA” value is reported as 30 g/ha.

Each compound was assayed on GALAP (catchweed bedstraw) (assay: Pre-plant incorporated (PPI) herbicidal activity, cool season). Settings: pre-plant incorporated; lowest tested rate with 80% or greater inhibition; about 14 days.
Type: in vivo, Galium aparine
Method: as §2, §3, §4
CCN(CC)C(=O)n1cnc(S(=O)(=O)C(F)(F)SCCOC)n1 [Example 13] was tested, and the “PPI activity GR80, GALAP” value was 300 g/ha.

Same assay, conditions: weed, PPI application, 10 g/ha
For CCN(CC)C(=O)n1cnc(S(=O)(=O)C(F)(F)SCCOC)n1 [Example 13], the “Percent inhibition GALAP” value was 0%.

Same assay, conditions: weed, PPI application, 30 g/ha
CCN(CC)C(=O)n1cnc(S(=O)(=O)C(F)(F)SCCOC)n1 [Example 13] was tested, and the “Percent inhibition GALAP” value was 30%.

Same assay, conditions: weed, PPI application, 100 g/ha
With CCN(CC)C(=O)n1cnc(S(=O)(=O)C(F)(F)SCCOC)n1 [Example 13] the “Percent inhibition GALAP” value was 0%.

Same assay, conditions: weed, PPI application, 300 g/ha
In the case of CCN(CC)C(=O)n1cnc(S(=O)(=O)C(F)(F)SCCOC)n1 [Example 13], the “Percent inhibition GALAP” value is reported as 40%.

Same assay, conditions: weed, PPI application, 900 g/ha
In the case of CCN(CC)C(=O)n1cnc(S(=O)(=O)C(F)(F)SCCOC)n1 [Example 13], the “Percent inhibition GALAP” value is reported as 100%.

What follows are compounds tested on LOLMG (annual ryegrass) in the same assay as above. Settings: pre-plant incorporated; lowest tested rate with 80% or greater inhibition; about 14 days.
Type: in vivo, Lolium multiflorum
Method: as §2, §3, §4
With CCN(CC)C(=O)n1cnc(S(=O)(=O)C(F)(F)SCCOC)n1 [Example 13] the “PPI activity GR80, LOLMG” value was “* (activity observed, at least at highest rate, but <80% inhibition)”.

Same assay, conditions: weed, PPI application, 10 g/ha
CCN(CC)C(=O)n1cnc(S(=O)(=O)C(F)(F)SCCOC)n1 [Example 13] was tested, and the “Percent inhibition LOLMG” value was 20%.

Same assay, conditions: weed, PPI application, 30 g/ha
For CCN(CC)C(=O)n1cnc(S(=O)(=O)C(F)(F)SCCOC)n1 [Example 13], the “Percent inhibition LOLMG” value was 60%.

Same assay, conditions: weed, PPI application, 100 g/ha
For CCN(CC)C(=O)n1cnc(S(=O)(=O)C(F)(F)SCCOC)n1 [Example 13], the “Percent inhibition LOLMG” value was 70%.

Same assay, conditions: weed, PPI application, 300 g/ha
For CCN(CC)C(=O)n1cnc(S(=O)(=O)C(F)(F)SCCOC)n1 [Example 13], the “Percent inhibition LOLMG” value was 100%.

Same assay, conditions: weed, PPI application, 900 g/ha
In the case of CCN(CC)C(=O)n1cnc(S(=O)(=O)C(F)(F)SCCOC)n1 [Example 13], the “Percent inhibition LOLMG” value is reported as 100%.

The compounds below were run on AEGCY (jointed goatgrass) in the same assay as above. Settings: pre-plant incorporated; lowest tested rate with 80% or greater inhibition; about 14 days.
Type: in vivo, Aegilops cylindrica
Method: as §2, §3, §4
With CCN(CC)C(=O)n1cnc(S(=O)(=O)C(F)(F)SCCOC)n1 [Example 13] the “PPI activity GR80, AEGCY” value was “[empty]”.

Same assay, conditions: weed, PPI application, 10 g/ha
CCN(CC)C(=O)n1cnc(S(=O)(=O)C(F)(F)SCCOC)n1 [Example 13] was tested, and the “Percent inhibition AEGCY” value was 0%.

Same assay, conditions: weed, PPI application, 30 g/ha
In the case of CCN(CC)C(=O)n1cnc(S(=O)(=O)C(F)(F)SCCOC)n1 [Example 13], the “Percent inhibition AEGCY” value is reported as 0%.

Same assay, conditions: weed, PPI application, 100 g/ha
In the case of CCN(CC)C(=O)n1cnc(S(=O)(=O)C(F)(F)SCCOC)n1 [Example 13], the “Percent inhibition AEGCY” value is reported as 0%.

Same assay, conditions: weed, PPI application, 300 g/ha
With CCN(CC)C(=O)n1cnc(S(=O)(=O)C(F)(F)SCCOC)n1 [Example 13] the “Percent inhibition AEGCY” value was 60%.

Same assay, conditions: weed, PPI application, 900 g/ha
In the case of CCN(CC)C(=O)n1cnc(S(=O)(=O)C(F)(F)SCCOC)n1 [Example 13], the “Percent inhibition AEGCY” value is reported as 40%.

These compounds were tested on AGRRE (quackgrass (seedling)) in the same assay as above. Settings: pre-plant incorporated; lowest tested rate with 80% or greater inhibition; about 14 days.
Type: in vivo, Elymus repens
Method: as §2, §3, §4
CCN(CC)C(=O)n1cnc(S(=O)(=O)C(F)(F)SCCOC)n1 [Example 13] was tested, and the “PPI activity GR80, AGRRE” value was “* (activity observed, at least at highest rate, but <80% inhibition)”.

Same assay, conditions: weed, PPI application, 10 g/ha
CCN(CC)C(=O)n1cnc(S(=O)(=O)C(F)(F)SCCOC)n1 [Example 13] was tested, and the “Percent inhibition AGRRE” value was 0%.

Same assay, conditions: weed, PPI application, 30 g/ha
For CCN(CC)C(=O)n1cnc(S(=O)(=O)C(F)(F)SCCOC)n1 [Example 13], the “Percent inhibition AGRRE” value was 0%.

Same assay, conditions: weed, PPI application, 100 g/ha
With CCN(CC)C(=O)n1cnc(S(=O)(=O)C(F)(F)SCCOC)n1 [Example 13] the “Percent inhibition AGRRE” value was 20%.

Same assay, conditions: weed, PPI application, 300 g/ha
With CCN(CC)C(=O)n1cnc(S(=O)(=O)C(F)(F)SCCOC)n1 [Example 13] the “Percent inhibition AGRRE” value was 40%.

Same assay, conditions: weed, PPI application, 900 g/ha
For CCN(CC)C(=O)n1cnc(S(=O)(=O)C(F)(F)SCCOC)n1 [Example 13], the “Percent inhibition AGRRE” value was 60%.

These compounds were tested on POAAN (annual bluegrass) in the same assay as above. Settings: weed, PPI application, 10 g/ha.
Type: in vivo, Poa annua
Method: as §2, §3, §4
For CCN(CC)C(=O)n1cnc(S(=O)(=O)C(F)(F)SCCOC)n1 [Example 13], the “Percent inhibition POAAN” value was 0%.

Same assay, conditions: weed, PPI application, 30 g/ha
For CCN(CC)C(=O)n1cnc(S(=O)(=O)C(F)(F)SCCOC)n1 [Example 13], the “Percent inhibition POAAN” value was 50%.

Same assay, conditions: weed, PPI application, 100 g/ha
CCN(CC)C(=O)n1cnc(S(=O)(=O)C(F)(F)SCCOC)n1 [Example 13] was tested, and the “Percent inhibition POAAN” value was 90%.

Same assay, conditions: weed, PPI application, 300 g/ha
For CCN(CC)C(=O)n1cnc(S(=O)(=O)C(F)(F)SCCOC)n1 [Example 13], the “Percent inhibition POAAN” value was 100%.

Same assay, conditions: weed, PPI application, 900 g/ha
With CCN(CC)C(=O)n1cnc(S(=O)(=O)C(F)(F)SCCOC)n1 [Example 13] the “Percent inhibition POAAN” value was 95%.

Reference: US6461997B1, “Triazole sulfones having herbicidal activity” (Monsanto Technology LLC, priority 1999, dated 2002)
